Results taken from patent US7235267B1, “Brain cell or nerve cell-protecting agents comprising medicinal ginseng” (priority 1999, dated 2007).
Like-named read-outs stand apart in the source and are kept apart here.

Legend:
[1] = system: rats with ischemia/reperfusion or permanent occlusion of the middle cerebral artery; conditions: cited from earlier work
cultured nerve cells = conditions: cited from earlier work
[2] = Cerebral blood flow, brain temperature, blood pressure; conditions: intravenous infusion 60 μg/day
[3] = system: primary cultured myocardial cells; assay: Myocardial cell survival in glucose-free, serum-free medium (α-actinin immunoblotting); assay type: cell-based, rat
Experimental: We have investigated whether or not ginsenoside Rb1 could actually suppress myocardial cell death in the concentration range for increasing the expression of Bcl-xL protein. For that purpose, for example, the protective effect of ginsenoside Rb1 on myocardial cells was examined when the primary cultured myocardial cells were cultured without addition of glucose. Ginsenoside Rb1 in the concentration range from 0 to 1 ng/ml was added to myocardial cells in serum-free DMEM without containing glucose, and the myocardial cells were cultured for 4 or 5 days. Subsequently, the samples for electrophoresis were prepared, and immunoblotting (Western blotting) was performed by using anti-striated muscle specific α-actinin antibody.
We (the present inventors) investigated whether ginsenoside Rb1 could actually suppress myocardial cell death in the concentration range for increasing the expression of Bcl-xL protein or not. For that purpose, for example, the protective effect of ginsenoside Rb1 on myocardial cells was examined when the primary cultured myocardial cells were cultured without addition of glucose. Ginsenoside Rb1 in the concentration range from 0 to 1 ng/ml was added to serum-free DMEM without containing glucose, and myocardial cells were cultured for 4 or 5 days. Subsequently, the sample for electrophoresis was prepared, and immunoblotting (Western blotting) was performed by using anti-striated muscle specific α-actinin antibody. […] Statistical analyses were conducted by ANOVA+Scheffe's post hoc test.

[4] = system: co-cultures of nerve cells (neurons) and oligodendrocytes; assay: Co-culture of nerve cells and oligodendrocytes, Western blotting of MAP2 and CNPase; assay type: cell-based, rat
Source text: As generally known, in myelinated nerve fibers within brain and nervous tissues, oligodendrocytes form myelin by ensheathing axons of neurons repeatedly. Further, in unmyelinated nerve fibers, processes of oligodendrocytes surround axons of neurons only once. In the brain and nervous tissues, nerve cells (neurons) and oligodendrocytes are at any time holding close positional relationship. The present inventors performed co-cultures of nerve cells and oligodendrocytes to investigate whether or not ginsenoside Rb1 promotes survival of both cells. For that purpose, nerve cells (neurons) were isolated from cerebral cortices of fetal rats at gestational day 17. The mixed brain cell culture was initiated to isolate oligodendrocytes by using the forebrain of newborn rats. Fifty thousands of oligodendrocytes and 500,000 nerve cells were cocultured. To this culture system was added 1 fg/ml to 10 pg/ml ginsenoside Rb1 in DMEM containing 1% fetal calf serum, and the mixed cells were cultured for 5 days. Subsequently, samples for electrophoresis were prepared and contents of the neuron-specific protein MAP2 (microtubule-associated protein 2) and the oligodendrocyte-specific protein CNPase (cyclic nucleotide […]) in the culture well were assayed by means of Western blotting. […]

[5] = system: SH-SP rats with MCA permanent occlusion; conditions: cited from earlier work
[6] = intravenous administration (Saito et al. 1980); cited from earlier work

CC(C)=CCC[C@](C)(O[C@@H]1O[C@H](CO[C@@H]2O[C@H](CO)[C@@H](O)[C@H](O)[C@H]2O)[C@@H](O)[C@H](O)[C@H]1O)[C@H]1CC[C@]2(C)[C@@H]1[C@H](O)C[C@@H]1[C@@]3(C)CC[C@H](O[C@@H]4O[C@H](CO)[C@@H](O)[C@H](O)[C@H]4O[C@@H]4O[C@H](CO)[C@@H](O)[C@H](O)[C@H]4O)C(C)(C)[C@@H]3CC[C@]12C [ginsenoside Rb1]
effect on infarction ([1]; intravenous 10 mg/kg before permanent occlusion of the middle cerebral artery): absolutely no effect
reduction of size of the infarction vs control ([1]; intravenous 40 mg/kg before permanent occlusion of the middle cerebral artery): about 14%
reduction of infarction size vs control ([1]; single intravenous 10-40 mg/kg after the reperfusion): 12%-35%
reduction of infarction size vs control ([1]; single intravenous 10-40 mg/kg before ischemia, ischemia/reperfusion model): 20%-49%
suppression of apoptosis-like nerve cell death and Bcl-xL protein expression in nerve cells (cultured nerve cells; 1 fg/ml and 100 fg/ml (tested 1, 100 and 10^5 fg/ml)): significant effects
formation of lipid peroxides (cultured nerve cells; 100 fg/ml): slight suppressive action
concentrations reducing neurotoxicity of glutamic acid (cultured nerve cells; Kim et al. 1998, Liu and Zhang 1995): 0.11 to 11 µg/mL
concentration that may protect against apoptosis-like death (cultured nerve cells; Tanaka et al. 1998): 500 µM
concentrations reducing necrosis of nerve cells caused by ferrous sulfate (cultured nerve cells; added in advance to the culture medium): 0.1 to 100 fg/mL
nerve cell death (cultured nerve cells; high concentration of ginsenoside Rb1, inventors' cell culture experiments): did not suppress
metabolic activity of control cultured nerve cells (cultured nerve cells; not treated with SNP): no effect
concentrations enhancing expression of Bcl-xL in cultured neurons (cultured nerve cells; prior application): 1˜100 fg/ml
extracellular concentrations protecting nerve cells injured by SNP (cultured nerve cells; sodium nitroprusside treatment (prior application)): 1 to 100 fg/mL
cerebral blood flow [2]: does not affect
protective effect on myocardial cells ([3]; 0.01 fg/ml, n=3): significant effects are not noted
striated muscle-specific α-actinin by immunoblotting (myocardial cell survival) ([3]; 1 fg/ml to 10^4 fg/ml, glucose-free serum-free medium, 4-5 days): significantly detected
concentrations promoting survival of myocardial cells ([3]; FIG. 26): 1-10^4 fg/ml
band of MAP2 and band of CNPase (survival of nerve cells and oligodendrocytes) ([4]; 1 fg/ml to 100 fg/ml, 5 days, vs non-added and 10^4 fg/ml groups): obviously intense
concentrations that made intense the MAP2 and CNPase bands ([4]; FIG. 22): 1 to 100 fg/mL
ischemia-induced place navigation disability ([5]; ginsenoside Rb1 intracerebroventricular infusion immediately after permanent MCA occlusion): ameliorated
ischemia-induced place navigation disability ([5]; ginsenoside Rb1 repetitive or continuous intravenous 6 μg or 60 μg/day): significantly ameliorated
LD50 [6]: approximately 448 mg/kg
